Experimental data reported in US20100267928A1, “ACTIVATABLE DIAGNOSTIC AND THERAPEUTIC COMPOUND” (priority 2007, published 2010).
Primed or numbered codes have the meaning given here. Where no end group is shown, it is not given here. The star is where a group is joined. FITC = O=C1OC2(c3ccc(O)cc3Oc3cc(O)ccc32)c2ccc(NC(=S)*)cc21; DOTA = O=C(O)CN1CCN(CC(=O)O)CCN(CC(=O)*)CCN(CC(=O)O)CC1; FITC′ = fluorescent dye, fluorescein isothiocyanate

Columns and labels:
[1] = system: LN18 and U373 glioma cells; experiment: Confocal laser scanning microscopy (CLSM) and FACS, staining of cell nuclei; type: cell-based, human; conditions: 130 μM; for staining of the cell nuclei, MMP-2 active: APMA-containing medium without inhibitor; for staining of the cell nuclei, MMP-2 inactive: APMA-containing medium, MMP-2 inactive/inhibited
Description: (§1) The FACS analysis was performed on a Becton-Dickinson FACSCalibur. [[…] of the cell suspension (1×10^6 cells+[…] FACS buffer (DPBS buffer with 1% paraformaldehyde)]. Approximately 25.000 to 35.000 cells were measured per sample [fluorescence excitation: argon-ion laser (480 nm), fluorescence detection: 540 to 565 nm band-path filter]. The tests were repeated two times.

[2] = system: LN18 and U373 glioma cells; conditions: 130 μM; for apoptosis (binding of Alexa annexin to phosphatidyl serine; morphologic alterations), MMP-2 active: APMA-containing medium without inhibitor; for signs of cell death, MMP-2 inactive: data not shown
Description: Human malignant glioma cells (U373 and LN18) were seated into 25 cm^2 culture flasks which contained 3 ml RPMI medium. This was left as it is for one day so that enough matrix metalloprotenases (MMP-2) could accumulate.
In a second test the same compounds were again dissolved in the media of 12 flasks (130 μM), however now with MMP-2 inhibitor I (Calbiochem).
As a control four small flasks were used wherein both cell lines were incubated in a one day old medium with and also without APMA.
For the confocal laser scanning microscopy an inverted LSM510 laser scanning microscope (Karl Zeiss, Jena, Deutschland) (Objectives: LD Achroplan 40×0.6, Plan Neofluar 20×0.50, 40×0.75) was used [fluorescence excitation at 488 nm (argon-ion laser) and […] (helium-neon laser)]. Superimposed images of FITC- and alexa-stained cells were produced. All measurements were performed on living, non-fixed cells for three times.

LN18 glioma cells = experiment: FACS analysis of fluorescence-stained cells; type: cell-based, human; conditions: for strongly stained cells in FACS after cleavage by active MMP-2: active versus inactive MMP-2 in culture medium; for fluorescence after cleavage by MMP-2 in comparison to the components 2 and 2A: depending on the concentration, FIG. 5
Description: as §1

MMP-2 = biological target: T1, MMP-2 (Homo sapiens, UniProt P08253); experiment: Cleavage test with MMP-2, cleavage products examined by HPLC; type: biochemical; conditions: for cleavage of the compound by MMP-2 (HPLC): already active MMP-2 or proform of MMP-2 activated by APMA, 2 hours in HEPES buffer; for cleavage of the compound by MMP-2 in presence of the inhibitor (HPLC): with MMP-2 inhibitor I
T1 construct: purchased Calbiochem
T1 sequence (P08253 110-660): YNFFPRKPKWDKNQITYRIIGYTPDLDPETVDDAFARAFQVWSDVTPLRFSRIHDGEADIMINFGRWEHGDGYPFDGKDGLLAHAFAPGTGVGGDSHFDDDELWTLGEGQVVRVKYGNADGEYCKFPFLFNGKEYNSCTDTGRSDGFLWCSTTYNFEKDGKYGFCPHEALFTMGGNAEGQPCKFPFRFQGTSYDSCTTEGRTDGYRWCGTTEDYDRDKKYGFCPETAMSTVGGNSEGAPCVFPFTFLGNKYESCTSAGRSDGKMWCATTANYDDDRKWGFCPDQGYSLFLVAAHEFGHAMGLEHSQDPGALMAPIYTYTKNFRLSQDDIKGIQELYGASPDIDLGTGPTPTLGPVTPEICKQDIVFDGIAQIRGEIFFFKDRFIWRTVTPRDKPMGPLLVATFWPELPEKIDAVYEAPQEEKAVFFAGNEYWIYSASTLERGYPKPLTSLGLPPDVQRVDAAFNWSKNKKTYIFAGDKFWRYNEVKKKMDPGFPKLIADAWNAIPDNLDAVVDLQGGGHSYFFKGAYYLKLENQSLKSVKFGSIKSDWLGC
Description: The incubation in HEPES buffer with active MMP-2 was made for 2 hours.
[…]. For this 1% APMA stock solution (100 mM in DMSO) was added to the solution containing the MMP-2 proenzyme and the compounds (final APMA concentration: 1 mM, with 1% DMSO).
In the following also an incubation of 2 hours was performed. In addition the tests were made with the MMP-2 inhibitor I (Calbiochem). All six compounds were, as a control, also incubated into HEPES buffer without MMP-2 for two hours.

[3] = system: U373 and LN18 glioma cells; experiment: Magnetic resonance relaxometry on glioma cell centrifugates; type: cell-based, human; conditions: for shortening of the T1 time, inhibitor-free medium: without MMP-2 inhibitor
Description: Human U373 and LN18 glioma cells were grown in 25 cm^2 culture flasks (70% confluence). Accutase™ (PAA laboratories, Pasching, Austria) was added to strip off the cells from the bottom of the culture flasks.
In a first try the cells were collected and subsequently distributed on 16 Eppendorf-vials (6×10^6 cells per vial). The cells in the first four vials were used as a control (only RPMI medium with and also without APMA, two cell lines). […] In the following it was washed for three times with PBS and centrifuged with 800 rpm (rounds per minute) for 5 minutes.
In another test adherent U373 and LN18 glioma cells were incubated with the compounds 2A, 4A and […], and were stripped off in the following and collected in Eppendorf vials for the MRT. The MRT analysis of the Eppendorf vials with the cell centrifugates were performed in a 3 Tesla full body MRT apparatus (Trio, Siemens Magnetom Sonata, circular polarised knee coil).
The following spin echo sequence was used to obtain sagittal T1-weighted MRT images.
[…] TE (echo time): 7.4 ms, flip angle 90°, averages: 1, concatenations: 2, measurements: 2, number of slices: 19, distance factor: 30%, slice thickness: 3 mm, field of view read: 180 mm, field of view phase: 100%, base resolution: 256, phase resolution: 100%, voxel size: 0.7×0.7×3.0 mm, scan time: 1:48 min.
By means of multiple spin echo measurements (TR: 20-8000 ms, 50 different TR values) different signal intensities were measured through which the T1 relaxation time could be determined.
TR: 20-8000 ms (50 different TR values), TE: 6.4 ms, flip angle 90°, averages: 1, measurements; 1, number of slices: 1, slice thickness: 1 mm, field of view read: 120 mm, field of view phase: 87.5, base resolution 128, phase resolution; 100% voxel size: 0.9×0.9×1 mm.
For the analysis and calculations a Matlab programme (Math Works, Natick, Mass., USA) was used. The T1 values were determined via a two-parameter fit. All signal curves were examined and rated as being mono-exponential. All tests were performed three times.

| Substance | staining of the cell nuclei, MMP-2 active [1] | staining of the cell nuclei, MMP-2 inactive [1] | apoptosis (binding of Alexa annexin to phosphatidyl serine; morphologic alterations), MMP-2 active [2] | signs of cell death, MMP-2 inactive [2] | strongly stained cells in FACS after cleavage by active MMP-2 (LN18 glioma cells; LN18 glioma cells) | displacement of the peak of the FACS histogram to the right, V4 versus V2 (LN18 glioma cells; LN18 glioma cells, after cleavage by active MMP-2) | fluorescence after cleavage by MMP-2 in comparison to the components 2 and 2A (LN18 glioma cells) | cleavage of the compound by MMP-2 (HPLC) (MMP-2) | cleavage of the compound by MMP-2 in presence of the inhibitor (HPLC) (MMP-2) | staining of the cell nuclei, MMP-2 inactive ([1]; listed as 5) | cleavage of the compound by MMP-2 (HPLC) (MMP-2; listed as 5) | shortening of the T1 time in comparison to component 2A, inhibitor-free medium ([3]; depending on the concentration) | shortening of the T1 time, inhibitor-free medium [3] | cleavage of the compound by MMP-2 (HPLC) (MMP-2; listed as 5A) | cleavage of the compound by MMP-2 (HPLC) (MMP-2; listed as V5a) | shortening of the T1 time in comparison to the native control, inhibitor-containing medium ([3]; 26 and 130 μM, with MMP-2 inhibitor) | signal intensity at TR: 400 ms, active MMP-2 versus inactive MMP-2 ([3]; LN18 glioma cell centrifugates, 26 and 130 μm, washed and centrifuged three times) |
| --- | --- | --- | --- | --- | --- | --- | --- | --- | --- | --- | --- | --- | --- | --- | --- | --- | --- |
| K(DOTA)-G-PLGLA-GGPKKKRKVRRRR-K(FITC)-GG-K(DOTA) (K(DOTA)GPLGLAGGPKKKRKVRRRRK(FITC)GGK(DOTA)) [V4] | staining of the cell nuclei can only be observed after the cleavage | few stained cell nuclei | apoptotic | did not show any signs of cell death | considerable increase of the strongly stained cells | more pronounced | stronger fluorescence | cleaved | prevented | – | – | – | – | – | – | – | – |
| K(DOTA)-GG-K(FITC)-RRRR-G-PLGLA-G-RRRR-K(FITC)-GG-K(DOTA) (K(DOTA)GGK(FITC)RRRRGPLGLAGRRRRK(FITC)GGK(DOTA)) [V5] | accumulates in the cell nuclei | the cells remain unstained | apoptotic | did not show any signs of cell death | – | – | stronger fluorescence | split into two new peaks | prevented | few stained cell nuclei | cleaved | – | – | – | – | – | – |
| K-(GdDOTA)-GG-K(FITC)-RRRR-G-PLGLA-G-RRRR-K(FITC)-GG-K(GdDOTA) (K(DOTA)GGK(FITC′)RRRRGPLGLAGRRRRK(FITC′)GGK(DOTA)-NH2; also: DOTA groups complexed with Gd (GdDOTA)) [V5A] | – | few stained cell nuclei | apoptotic | – | – | – | stronger fluorescence | – | prevented | – | – | stronger shortening of the T1 time | more distinct shortening of the T1 time | cleaved | split into two new peaks | – | – |
| PKKKRKV-K(FITC)-GG-K(DOTA)-PLGVR-K(DOTA) (PKKKRKVKGGKPLGVRK) [V2] | – | few stained cell nuclei | – | did not show any signs of cell death | considerable increase of the strongly stained cells | – | – | cleaved | prevented | – | – | – | – | – | – | – | – |
| PKKKRKV-K(FITC)-GG-K(GdDOTA)-PLGVR-K(GdDOTA) (PKKKRKVKGGKPLGVRK; not fully specified) [V2A] | – | few stained cell nuclei | – | did not show any signs of cell death | – | – | – | cleaved | prevented | – | – | – | more distinct shortening of the T1 time | – | – | minor shortening of the T1 time | considerably higher signal intensity |
